What all share (assay type): cell-based
Test [1] concerns Ba/F3 cells expressing EGFR-wt. Nature of the test: Growth inhibition (GI50) of Ba/F3 cells expressing EGFR-wt, Celltiter glo. The following applies: Mus musculus, BaF3, 72 h. A digest of the protocol: (§1)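 We seed Ba/F3 transfectants at 100,000 cells/ml, dose them with ten 4-fold compound dilutions (2 mM top stock, 0.5% DMSO) after 4 h, and culture for 72 h at 37 °C. CellTiter-Glo then reports viable cell number, from which the GI50 is fitted.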
In general terms: ATP-based viability assays read luminescence as a measure of living cells.

The next test deals with parental Ba/F3 cell line. Nature of the test: Growth inhibition (GI50) of the parental Ba/F3 cell line (not introduced with EGFR variants), Celltiter glo. The note with it: Mus musculus, BaF3, 72 h, parental Ba/F3 cells. In short, it runs like this:
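Viable cell count by CellTiter-Glo after 72 h at 37 °C gave GI50 values (μM, 50% growth inhibition). Cells lacking EGFR variants were seeded at 100,000 cells/ml and dosed 4 h later with 4-fold serial dilutions from a 2 mM stock, 0.5% DMSO.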

Test [2] deals with Ba/F3 cells expressing L858R/T790M/C797S (EGFR-LTC). The test is described as follows: Growth inhibition (GI50) of Ba/F3 cells expressing L858R/T790M/C797S (EGFR-LTC), Celltiter glo. The note with it: Mus musculus, BaF3, 72 h. A digest of the protocol: as §1
Test [3] deals with Ba/F3 cells expressing L858R/T790M (EGFR-LT). The test is described as follows: Growth inhibition (GI50) of Ba/F3 cells expressing L858R/T790M (EGFR-LT), Celltiter glo. The note with it: Mus musculus, BaF3, 72 h. A digest of the protocol: as §1
Test [4] relates to Ba/F3 cells expressing del19/T790M/C797S (EGFR-DTC). Nature of the test: Growth inhibition (GI50) of Ba/F3 cells expressing del19/T790M/C797S (EGFR-DTC), Celltiter glo. The note with it: Mus musculus, BaF3, 72 h. In short, it runs like this:
as §1

The subject of test [5] is Ba/F3 cells expressing del19/T790M (EGFR-DT). Nature of the test: Growth inhibition (GI50) of Ba/F3 cells expressing del19/T790M (EGFR-DT), Celltiter glo. The following applies: Mus musculus, BaF3, 72 h. A digest of the protocol: as §1

The GI50 is the concentration giving 50% growth inhibition. `COc1cc(N2CCC(N3CCC(N(C)C)C3)CC2)c(C)cc1Nc1ncc(Br)c(Nc2cc3c(cc2NS(C)(=O)=O)CCO3)n1` (stereo not drawn) [Example 211, N-(6-((5-bromo-2-((4-(4-(3-(dimethylamino)pyrrolidin-1-yl)piperidin-1-yl)-2-methoxy-5-methylphenyl)amino)pyrimidin-4-yl)amino)-2,3-dihydrobenzofuran-5-yl)methanesulfonamide]: the GI50 in test [1] fell in the range of 100 to 500 nM; in the test with parental Ba/F3 cell line it was 2000 to 10000 nM; in test [2], 1 to 25 nM; in test [3] it was 25 to 100 nM; in test [4], 25 to 100 nM; in test [5] it was 1 to 25 nM.
As for `COc1cc(N2CCC(N3CCN(C4CC4)CC3)CC2)c(C)cc1Nc1ncc(Br)c(Nc2cc3c(cc2NS(C)(=O)=O)CCO3)n1` [Example 212, N-(6-((5-bromo-2-((4-(4-(4-cyclopropylpiperazin-1-yl)piperidin-1-yl)-2-methoxy-5-methylphenyl)amino)pyrimidin-4-yl)amino)-2,3-dihydrobenzofuran-5-yl)methanesulfonamide], the GI50 in test [1] is 100 to 500 nM; with parental Ba/F3 cell line, 2000 to 10000 nM; in test [2], 1 to 25 nM; in test [3], 1 to 25 nM; in test [4], 25 to 100 nM; in test [5], 1 to 25 nM.
For `Cc1cc(Nc2ncc(Br)c(Nc3cc4c(cc3NS(C)(=O)=O)CCO4)n2)c(Cl)cc1N1CCC(N2CCC(N(C)C)C2)CC1` (stereo not drawn) [Example 213, N-(6-((5-bromo-2-((2-chloro-4-(4-(3-(dimethylamino)pyrrolidin-1-yl)piperidin-1-yl)-5-methylphenyl)amino)pyrimidin-4-yl)amino)-2,3-dihydrobenzofuran-5-yl)methanesulfonamide], the GI50 in test [1] is 100 to 500 nM; in the test with parental Ba/F3 cell line, 2000 to 10000 nM; in test [2], 25 to 100 nM; in test [3], 100 to 500 nM; in test [4], 25 to 100 nM; in test [5], 1 to 25 nM.
As to `Cc1cc(Nc2ncc(Br)c(Nc3cc4c(cc3NS(C)(=O)=O)CCO4)n2)c(Cl)cc1N1CCC(N2CCCC(N(C)C)C2)CC1` (stereo not drawn) [Example 214, N-(6-((5-bromo-2-((2-chloro-4-(3-(dimethylamino)-[1,4′-bipiperidin]-1′-yl)-5-methylphenyl)amino)pyrimidin-4-yl)amino)-2,3-dihydrobenzofuran-5-yl)methanesulfonamide], the GI50 was 100 to 500 nM in test [1]; 2000 to 10000 nM with parental Ba/F3 cell line; 25 to 100 nM in test [2]; 1 to 25 nM in test [3]; 25 to 100 nM in test [4]; 1 to 25 nM in test [5].
Take `COc1cc(N2CCC(N3CCNCC3)CC2)c(C)cc1Nc1ncc(Br)c(Nc2cc3c(cc2NS(C)(=O)=O)CCO3)n1` [Example 215, N-(6-((5-bromo-2-((2-methoxy-5-methyl-4-(4-(piperazin-1-yl)piperidin-1-yl)phenyl)amino)pyrimidin-4-yl)amino)-2,3-dihydrobenzofuran-5-yl)methanesulfonamide]: the GI50 in test [1] lay within 100 to 500 nM; in the test on parental Ba/F3 cell line it was 2000 to 10000 nM; in test [2] it was 25 to 100 nM; in test [3], 25 to 100 nM; in test [4] it was 25 to 100 nM; in test [5] it was 1 to 25 nM.
On to `COc1cc(N2CCC(N3CCCC(N(C)C)C3)CC2)c(Cl)cc1Nc1ncc(Br)c(Nc2cc3c(cc2NS(C)(=O)=O)CCO3)n1` (stereo not drawn) [Example 216, N-(6-((5-bromo-2-((5-chloro-4-(3-(dimethylamino)-[1,4′-bipiperidin]-1′-yl)-2-methoxyphenyl)amino)pyrimidin-4-yl)amino)-2,3-dihydrobenzofuran-5-yl)methanesulfonamide], for which the 50% growth inhibitory concentration (GI50) is 25 to 100 nM in test [1]; 2000 to 10000 nM with parental Ba/F3 cell line; 25 to 100 nM in test [2]; 1 to 25 nM in test [3]; 1 to 25 nM in test [4]; 1 to 25 nM in test [5].
In the case of `CN1CCN(C2CCN(c3cc(Cl)c(Nc4ncc(Br)c(Nc5cc6c(cc5NS(C)(=O)=O)CCO6)n4)cc3Cl)CC2)CC1` [Example 217, N-(6-((5-bromo-2-((2,5-dichloro-4-(4-(4-methylpiperazin-1-yl)piperidin-1-yl)phenyl)amino)pyrimidin-4-yl)amino)-2,3-dihydrobenzofuran-5-yl)methanesulfonamide], the GI50 was in the range of 100 to 500 nM in test [1]; 500 to 2000 nM in the test on parental Ba/F3 cell line; 1 to 25 nM in test [2]; 1 to 25 nM in test [3]; 1 to 25 nM in test [4]; 1 to 25 nM in test [5].
`COc1cc(N2CCC(N3CCCC(N(C)C)C3)CC2)c(C)cc1Nc1ncc(Cl)c(Nc2cc3c(cc2NS(C)(=O)=O)CCO3)n1` (stereo not drawn) [Example 218, N-(6-((5-chloro-2-((4-(3-(dimethylamino)-[1,4′-bipiperidin]-1′-yl)-2-methoxy-5-methylphenyl)amino)pyrimidin-4-yl)amino)-2,3-dihydrobenzofuran-5-yl)methanesulfonamide]: the GI50 was 100 to 500 nM in test [1]; 500 to 2000 nM in the test on parental Ba/F3 cell line; 100 to 500 nM in test [2]; 25 to 100 nM in test [3]; 1 to 25 nM in test [4]; 1 to 25 nM in test [5].
As for `COc1cc(N2CCC(N3CCCC(N(C)C)C3)CC2)c(Cl)cc1Nc1ncc(Cl)c(Nc2cc3c(cc2NS(C)(=O)=O)CCO3)n1` (stereo not drawn) [Example 219, N-(6-((5-chloro-2-((5-chloro-4-(3-(dimethylamino)-[1,4′-bipiperidin]-1′-yl)-2-methoxyphenyl)amino)pyrimidin-4-yl)amino)-2,3-dihydrobenzofuran-5-yl)methanesulfonamide], the 50% growth inhibitory concentration (GI50) in test [1] was in the range of 100 to 500 nM; with parental Ba/F3 cell line, 2000 to 10000 nM; in test [2], 25 to 100 nM; in test [3] it was 1 to 25 nM; in test [4], 1 to 25 nM; in test [5] it was 1 to 25 nM.
Regarding `COc1cc(N2CCC(N3CCN(C)CC3)CC2)ccc1Nc1ncc(Cl)c(Nc2cc3c(cc2NS(C)(=O)=O)CCO3)n1` [Example 220, N-(6-((5-chloro-2-((2-methoxy-4-(4-(4-methylpiperazin-1-yl)piperidin-1-yl)phenyl)amino)pyrimidin-4-yl)amino)-2,3-dihydrobenzofuran-5-yl)methanesulfonamide], the GI50 lay within 500 to 2000 nM in test [1]; 25 to 100 nM with parental Ba/F3 cell line; 100 to 500 nM in test [2]; 25 to 100 nM in test [3]; 100 to 500 nM in test [4]; 100 to 500 nM in test [5].
In the case of `CN1CCN(C2CCN(c3ccc(Nc4ncc(Cl)c(Nc5cc6c(cc5NS(C)(=O)=O)CCO6)n4)c(Cl)c3)CC2)CC1` [Example 221, N-(6-((5-chloro-2-((2-chloro-4-(4-(4-methylpiperazin-1-yl)piperidin-1-yl)phenyl)amino)pyrimidin-4-yl)amino)-2,3-dihydrobenzofuran-5-yl)methanesulfonamide], the GI50 lay within 100 to 500 nM in test [1]; 500 to 2000 nM in the test on parental Ba/F3 cell line; 25 to 100 nM in test [2]; 25 to 100 nM in test [3]; 25 to 100 nM in test [4]; 25 to 100 nM in test [5].
Regarding `COc1cc(N2CCC(N3CCN(C)CC3)CC2)c(F)cc1Nc1ncc(Cl)c(Nc2cc3c(cc2NS(C)(=O)=O)CCO3)n1` [Example 222, N-(6-((5-chloro-2-((5-fluoro-2-methoxy-4-(4-(4-methylpiperazin-1-yl)piperidin-1-yl)phenyl)amino)pyrimidin-4-yl)amino)-2,3-dihydrobenzofuran-5-yl)methanesulfonamide], the GI50 in test [1] fell in the range of 100 to 500 nM; with parental Ba/F3 cell line, 2000 to 10000 nM; in test [2], 100 to 500 nM; in test [3], 1 to 25 nM; in test [4], 1 to 25 nM; in test [5] it was 1 to 25 nM.

The record behind these values is patent US20240228458A1, “PYRIMIDINE DERIVATIVE HAVING PROTEIN KINASE INHIBITORY ACTIVITY, AND THERAPEUTIC PHARMACEUTICAL COMPOSITION COMPRISING SAME” (THERAPEX CO., LTD., priority 2021, published 2024).
